Laboratory results published in patent US20250340532A1, “HETEROCYCLIC COMPOUND CCR4 INHIBITOR AND USER THEREOF” (Xizang Haisco Pharmaceutical Co., Ltd., priority 2022, published 2025).

Target: T1, CCR4 (Homo sapiens, UniProt P51679)
T1 construct: expressed in transfected cells; host or cells: HEK293
T1 sequence (P51679 1-360): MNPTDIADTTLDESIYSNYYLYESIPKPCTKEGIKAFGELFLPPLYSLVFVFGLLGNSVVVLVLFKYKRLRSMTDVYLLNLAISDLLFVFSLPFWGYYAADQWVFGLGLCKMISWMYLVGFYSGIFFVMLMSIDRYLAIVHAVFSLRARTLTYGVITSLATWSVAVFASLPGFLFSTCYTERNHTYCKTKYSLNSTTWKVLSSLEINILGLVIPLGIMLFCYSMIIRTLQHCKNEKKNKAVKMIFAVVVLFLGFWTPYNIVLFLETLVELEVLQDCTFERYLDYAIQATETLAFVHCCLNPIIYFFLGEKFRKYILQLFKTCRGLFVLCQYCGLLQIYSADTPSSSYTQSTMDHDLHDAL
Test: Calcium flow detected by FLIPR
Type: cell-based
Settings: CCR4/HEK293 cells, agonist CCL17, Fluo-4 calcium signal
Method: CCR4/HEK293 cells were added to a 384-well cell culture plate (Greiner #781946) at a rate of 20 μL/well (20,000 cells/well) and incubated overnight in a 37° C., 5% CO2 incubator (Incubator, Thermo). On the second day, the 384-well cell culture plate was taken out of the incubator and the culture medium was removed; Then, 20 μL of detection buffer and 20 μL of 2X Fluo-4 Direct™ (Invitrogen, Cat #F10471) were added. Then, compounds were added at 10 μL/well (compounds were subjected to 4-fold serial dilution, and the highest detection concentration was 10 μM), and the cells were incubated in a 37° C., 5% CO2 incubator for 50 min, and then incubated at room temperature for 10 min. The 384-well culture plate was placed in FLIPR ([…]), 10 μL of 6X agonist CCL17 was added by using an automatic loader, and the fluorescence signal was read immediately. The mean and standard error (Mean±SEM) were statistically analyzed using Graphpad Prism software, and the IC50 value was calculated.
The experimental results are shown in Table 3, where A represents IC50<100 nm; B represents 100 nM≤IC50<500 nM, and C represents 500 nM≤IC50.

| IC50 [nM] | Compound |
| --- | --- |
| 100 to 500 | C#Cc1cc(Cl)ccc1C(C)Nc1nc(N2CC(C3CCCN(C4CC(C)(C(=O)O)C4)C3)C2)nc(C)c1Cl (single isomer, unassigned) [Compound 7 isomer 2] |
| 100 to 500 | Cc1nc(N2CC(C3CCCC(N4CC(C)(C(=O)O)C4)C3)C2)nc(NC(C)c2ccc(Cl)cc2Cl)c1Cl (single isomer, unassigned) [Compound 8 isomer 1] |
| 100 to 500 | Cc1nc(N2CC(C3CCCN(C4CC(C)(C(=O)O)C4)C3)C2)nc(NC(C)c2cc(Cl)sc2Cl)c1Cl (single isomer, unassigned) [Compound 10 isomer 1] |
| < 100 | C#Cc1ccc(C(C)Nc2nc(N3CC([C@H]4CCCN([C@H]5C[C@](C)(C(=O)O)C5)C4)C3)nc(C)c2Cl)c(Cl)c1 (single isomer, unassigned) [Compound 11 isomer 1] |
| 100 to 500 | Cc1nc(N2CC(N3CCCC(N4CC(C)(C(=O)O)C4)C3)C2)nc(NC(C)c2ccc(Cl)cc2Cl)c1Cl (single isomer, unassigned) [Compound 16 isomer 1] |
| < 100 | Cc1nc(N2CC(N3CCCC(N4CC(C)(C(=O)O)C4)C3)C2)nc(NC(C)c2ccc(Cl)cc2Cl)c1Cl (single isomer, unassigned) [Compound 16 isomer 2] |
| < 100 | Cc1nc(C#CC2CCCN(C3CC(C)(C(=O)O)C3)C2)nc(NC(C)c2ccc(Cl)cc2Cl)c1Cl (single isomer, unassigned) [Compound 18 isomer 2] |
| < 100 | Cc1nc(C2CN(C3CCCN(C4CC(C)(C(=O)O)C4)C3)C2)nc(NC(C)c2ccc(Cl)cc2Cl)c1Cl (single isomer, unassigned) [Compound 20 isomer 3] |
| < 100 | C#Cc1ccc(C(C)Nc2nc(N3CC(C4CN(C5CC(C)(C(=O)O)C5)CCO4)C3)nc(C)c2Cl)c(Cl)c1 (single isomer, unassigned) [Compound 28 isomer 1] |
| 100 to 500 | C[C@@H](Nc1cc(N2CC(C3CN(C4CC(C)(C(=O)O)C4)CCO3)C2)ncn1)c1ccc(Cl)cc1Cl (single isomer, unassigned) [Compound 29 isomer 1] |
| < 100 | C#Cc1cc(Cl)ccc1C(C)Nc1nc(N2CC(C3CN(C4CC(C)(C(=O)O)C4)CCO3)C2)nc(C)c1Cl (single isomer, unassigned) [Compound 30 isomer 1] |
| < 100 | CC(Nc1nc(N2CC(C3CN(C4CC(C)(C(=O)O)C4)CCO3)C2)ncc1Br)c1ccc(Cl)cc1Cl (single isomer, unassigned) [Compound 37 isomer 1] |
| 100 to 500 | CC(Nc1nc(N2CC(C3CN(C4CC(C)(C(=O)O)C4)CCO3)C2)ncc1Br)c1ccc(Cl)cc1Cl (single isomer, unassigned) [Compound 37 isomer 2] |
| < 100 | CC(Nc1nc(N2CC(C3CN(C4CC(C)(C(=O)O)C4)CCO3)C2)ncc1Cl)c1ccc(Cl)cc1Cl (single isomer, unassigned) [Compound 42 isomer 1] |
| 100 to 500 | C[C@@H](Nc1nc(N2CC(C3CN(C4CC(C)(C(=O)O)C4)CCO3)C2)nc2ccsc12)c1ccc(Cl)cc1Cl (single isomer, unassigned) [Compound 54 isomer 1] |
| 100 to 500 | CC(Nc1nc(N2CC(C3CN(C4CC(C)(C(=O)O)C4)CCO3)C2)c2ccccc2n1)c1ccc(Cl)cc1Cl (single isomer, unassigned) [Compound 60 isomer 1] |
| 100 to 500 | CC(Nc1nc(N2CC(F)(C3CN(C4CC(C)(C(=O)O)C4)CCO3)C2)nc(C(F)(F)F)c1Cl)c1ccc(Cl)cc1Cl (single isomer, unassigned) [Compound 65 isomer 3] |
| 100 to 500 | CC(Nc1nc(N2CC(F)(C3CN(C4CC(C)(C(=O)O)C4)CCO3)C2)nc(C(F)F)c1Cl)c1ccc(Cl)cc1Cl (single isomer, unassigned) [Compound 66 isomer 3] |
| < 100 | C[C@@H](Nc1nc(N2CC(C3CN(C4CC(C)(C(=O)O)C4)CCO3)C2)nc2ccccc12)c1ccc(Cl)cc1Cl (single isomer, unassigned) [Compound 67 isomer 1] |
| 100 to 500 | C[C@@H](Nc1nc2c(c(N3CC(C4CN(C5CC(C)(C(=O)O)C5)CCO4)C3)n1)CN(C)C2)c1ccc(Cl)cc1Cl (single isomer, unassigned) [Compound 68 isomer 1] |
| 100 to 500 | Cc1nc(N2CC(C3CN(C4CC(C)(c5nn[nH]n5)C4)CCO3)C2)nc(NC(C)c2ccc(Cl)cc2Cl)c1Cl (single isomer, unassigned) [Compound 71 isomer 1] |
| 100 to 500 | CC(Nc1nc(N2CC(C3CN(C4CC(C)(C(=O)O)C4)CCC34CC4)C2)nc(C(F)F)c1Cl)c1ccc(Cl)cc1Cl (single isomer, unassigned) [Compound 74 isomer 3] |

| IC50 [nM] | Compound |
| --- | --- |
| 100 to 500 | CC(Nc1cc(C#CC2CCCN(C3CC(C)(C(=O)O)C3)C2)ccc1Cl)c1ccc(Cl)cc1Cl (single isomer, unassigned) [Compound 75 isomer 2] |
| < 100 | C[C@@H](Nc1nc(N2CC(C3CN(C4CC(C)(C(=O)O)C4)CCO3)C2)nc(C(F)F)c1Cl)c1ccc(Cl)cc1Cl (single isomer, unassigned) [Compound 77 isomer 2] |
| 100 to 500 | Cc1nc(N2CC(C3CN(C4CC(c5nn[nH]n5)C4)CCO3)C2)nc(NC(C)c2ccc(Cl)cc2Cl)c1Cl (single isomer, unassigned) [Compound 79 isomer 1] |
| 100 to 500 | Cc1nc(N2CC(C3CN(C4CC(c5nn[nH]n5)C4)CCO3)C2)nc(NC(C)c2ccc(Cl)cc2Cl)c1Cl (single isomer, unassigned) [Compound 79 isomer 2] |
| < 100 | Cc1nc(N2CC(C3CN(CCO)CCN3C)C2)nc(NC(C)c2ccc(Cl)cc2Cl)c1Cl (single isomer, unassigned) [Compound 80 isomer 1] |
| 100 to 500 | Cc1nc(N2CC(C3CN(C4CC(C)(C(=O)O)C4)CCN3C)C2)nc(NC(C)c2ccc(Cl)cc2Cl)c1Cl (single isomer, unassigned) [Compound 81 isomer 1] |
| 100 to 500 | Cc1nc(N2CC(F)(C3CN(C4CC(C(=O)O)C4)CCO3)C2)nc(N[C@H](C)c2ccc(Cl)cc2Cl)c1Cl (single isomer, unassigned) [Compound 84 isomer 1] |
| < 100 | CC(Nc1nc(N2CC(C3C=CCN(C4CC(C)(C(=O)O)C4)C3)C2)nc(C(F)F)c1Cl)c1ccc(Cl)cc1Cl (single isomer, unassigned) [Compound 85 isomer 1] |
| < 100 | CC(Nc1cc(N2CC(F)(C3CN(C4CC(C)(C(=O)O)C4)CCO3)C2)ccc1Cl)c1ccc(Cl)cc1Cl (single isomer, unassigned) [Compound 86 isomer 1] |
| < 100 | CC(Nc1nc(N2CC(F)(C3CN(C4CC(C)(C(=O)O)C4)CCO3)C2)ncc1Cl)c1ccc(Cl)cc1Cl (single isomer, unassigned) [Compound 89 isomer 1] |
| < 100 | Cc1nc(N2CCC(C3CN(C4CC(C)(C(=O)O)C4)CCN3C)CC2)nc(NC(C)c2ccc(Cl)cc2Cl)c1Cl (single isomer, unassigned) [Compound 105 isomer 3] |
| < 100 | Cc1nc(N2CCC(F)(C3CN(C4CC(C)(C(=O)O)C4)CCO3)CC2)nc(NC(C)c2ccc(Cl)cc2Cl)c1Cl (single isomer, unassigned) [Compound 106 isomer 3] |
| < 100 | Cc1nc(N2CC=C(C3CN(C4CC(C)(C(=O)O)C4)CCO3)CC2)nc(NC(C)c2ccc(Cl)cc2Cl)c1Cl (single isomer, unassigned) [Compound 107 isomer 1] |
| < 100 | C[C@@H](Nc1cc(N2CCC(C3CN(C4CC(C)(C(=O)O)C4)CCO3)CC2)nc2ccnn12)c1ccc(Cl)cc1Cl (single isomer, unassigned) [Compound 111] |
| < 100 | C#Cc1c(C)nc(N2CC([C@H]3CCCN([C@H]4C[C@](C)(C(=O)O)C4)C3)C2)nc1N[C@H](C)c1ccc(Cl)cc1Cl [Compound 4] |
| < 100 | Cc1cc(N2CC([C@H]3CCCN([C@H]4C[C@](C)(C(=O)O)C4)C3)C2)nc(N[C@H](C)c2ccc(Cl)cc2Cl)n1 [Compound 12] |
| 100 to 500 | Cc1nc(N2CC([C@H]3CCCN([C@H]4C[C@](C)(C(=O)O)C4)C3)C2)nc(NC(C)c2cc3c(cc2Cl)CC3)c1Cl (some centres unmarked) [Compound 13] |
| < 100 | C[C@@H](Nc1cc(N2CC([C@H]3CCCN([C@H]4C[C@](C)(C(=O)O)C4)C3)C2)nc2ccnn12)c1ccc(Cl)cc1Cl [Compound 14] |
| < 100 | C[C@@H](Nc1cc(N2CC([C@H]3CCCN([C@H]4C[C@](C)(C(=O)O)C4)C3)C2)ncn1)c1ccc(Cl)cc1Cl [Compound 15] |
| < 100 | Cc1nc(N[C@H](C)c2ccc(Cl)cc2Cl)nc(N2CC([C@H]3CCCN([C@H]4C[C@](C)(C(=O)O)C4)C3)C2)n1 [Compound 17] |
| < 100 | C[C@H](c1ccc(Cl)cc1Cl)n1nc(C#N)c2ncc(N3CC(C4CN(CCO)CCO4)C3)nc21 (some centres unmarked) [Compound 19] |
| < 100 | C[C@@H](Nc1cc(N2CC([C@H]3CCCN([C@H]4C[C@](C)(C(=O)O)C4)C3)C2)cnn1)c1ccc(Cl)cc1Cl [Compound 21] |
